# Like-named read-outs stand apart in the source and are kept apart here.
# Key:
# [1] = Pharmacokinetic study of GT in DcNPs compared to CrEL (Example 2), plasma G, T and dFdU; type: in vivo, BALB/c mice; conditions: for MRT / concentration at 3 h / AUC(0-inf) / C0 / half-life / Vd: female, BALB/c, mouse, plasma; for MRT: read-out: MRT (mean residence time); for concentration at 3 h: intravenous; for C0: read-out: C0 (concentration at time 0, back extrapolated); for half-life: read-out: T1/2,app (converted); for Vd: read-out: Vss; for time over which concentrations in plasma were detected: mice administered GT DcNPs, 48-hour study; for plasma concentration by 24 hours: mice treated with the CrEL control formulation
# From the text: Drugs extracted from biological matrices such as plasma or tissue homogenates were quantified by a Shimadzu HPLC system coupled to a 3200 QTRAP mass spectrometer (Applied Biosystems, Grand Island, N.Y.). The HPLC system consisted of two Shimadzu LC-20A pumps, a DGU-20A5 degasser, and a Shimadzu SIL-20AC HT autosampler. The mass spectrometer was equipped with an electrospray ionization (ESI) TurbolonSpray source. The system was operated with Analyst software, version 1.5.2 (ABSciex, Framingham, Mass.). Chromatographic separation of G and T was achieved using a Synergi column (100×2.0 mm; 4-μm particle size) (Phenomenex, Torrance, Calif.) with an inline C8 guard column (4.0×2.0 mm) also from Phenomenex. The flow rate was set to 0.5 mL/min with a 5 μl sample injection volume. The mobile phase for separation consisted of pump A (20 mM Ammonium Acetate in water) and B (Reagent Alcohol). […] The needle was washed with isopropanol after each injection. Analytes were monitored using multiple-reaction monitoring (MRM) for positive ions.
# Statistical comparisons were performed using 2-sided t-tests with Welch's correction for unequal variances. Significance probability α was set at 0.05. Pharmacokinetic parameters from non-compartmental analysis were calculated using the trapezoidal rule and relevant pharmacokinetic equations shown in Table 3.
# [2] = GT localization in healthy versus 4T1 tumor bearing lung tissue; type: in vivo, BALB/c mice; conditions: for concentration at 1 h / concentration at 24 h / Kp at 1 h / Kp at 24 h: female, BALB/c, mouse, intravenous; for concentration at 24 h / Kp at 24 h: 24 hours after DcNP; for Kp at 1 h / Kp at 24 h: lung/plasma, read-out: Lung/Plasma Ratio
# Procedure: Female BALB/c mice were injected with 2×10^5 4 T1 metastatic breast cancer cells that express luciferase as a marker intravenously by tail vein on day 0. Stable expression of luciferase in these cells allows for bioluminescent monitoring of tumor growth and metastasis. Over a 14-day period, mouse behavior and health conditions were monitored daily and body weight measurements were taken every 2 days. […] The bioluminescence imaging was acquired through a XENOGEN IVIS 200 imaging system (PerkinElmer, Waltham, Mass.). The bioluminescence imaging parameters for live mice were set as follows: field of view, 24; excitation filter, closed; emission filter, open; exposure time, 180 sec; binning factor, 4; f/stop, 2. Bioluminescence intensity from mice were integrated using Live Image software (PerkinElmer, Waltham, Mass.). Mice were then intravenously administered GT in DcNPs at a dose of 50 mg/kg G and 5 mg/kg T or the same dose of drug in control suspension (CrEL) and sacrificed at fixed time points.
# To determine whether DcNPs enhance GT distribution into target tissues, namely cancer nodules, the differential localization of GT in DcNP or CrEL form in healthy versus cancer nodule bearing mice was investigated. Since lungs are a common metastatic site for breast cancer disease progression, a model for metastasis that forms cancer nodules in the lungs was used. Cancer nodules were established in female BALB/c mice via intravenous inoculation of syngeneic breast cancer cells (4T1). […] Once nodules were established and confirmed with IVIS imaging, mice were administered with GT in either DcNP or conventionally solubilized form at equivalent doses (50/5 mg/kg, GT) and euthanized at pre-determined time intervals. Nodule-free and nodule-bearing lungs were harvested, and lung tissue drug concentrations were compared in these two groups.
# [3] = Control (CrEL suspension), 50/5 mg/kg G/T IV, mice
# [4] = GT DcNP, 50/5 mg/kg G/T IV, mice
# [5] = after GT DcNP dosing, 50/5 mg/kg G/T IV, mice
# [6] = after control CrEL dosing, 50/5 mg/kg G/T IV, mice
# [7] = iv, 50 mg/kg, Control (CrEL suspension), 50/5 mg/kg G/T IV, mice
# [8] = iv, 50 mg/kg, GT DcNP, 50/5 mg/kg G/T IV, mice
# [9] = iv, GT DcNP, 50/5 mg/kg G/T IV, mice
# [10] = lung, 1 hour after DcNP, 4T1 tumor bearing mice, read-out: Lung
# [11] = lung, 1 hour after DcNP, Healthy mice, 50/5 mg/kg GT IV, read-out: Lung
# [12] = lung, 1 hour after control (CrEL), 4T1 tumor bearing mice, 50/5 mg/kg GT IV, read-out: Lung
# [13] = lung, 1 hour after control (CrEL), Healthy mice, 50/5 mg/kg GT IV, geometric mean ± SD, read-out: Lung
# [14] = lung, 4T1 tumor bearing mice, read-out: Lung
# [15] = lung, Healthy mice, read-out: Lung
# [16] = 1 hour after DcNP, 4T1 tumor bearing mice
# [17] = 1 hour after DcNP, Healthy mice
# [18] = 1 hour after control (CrEL), 4T1 tumor bearing mice
# [19] = 1 hour after control (CrEL), Healthy mice
# [20] = plasma, 1 hour after DcNP, 4T1 tumor bearing mice, read-out: Plasma
# [21] = plasma, 1 hour after DcNP, Healthy mice, read-out: Plasma
# [22] = plasma, 1 hour after control (CrEL), 4T1 tumor bearing mice, read-out: Plasma
# [23] = plasma, 1 hour after control (CrEL), Healthy mice, read-out: Plasma
# [24] = iv, 5 mg/kg, Control (CrEL suspension), 50/5 mg/kg G/T IV, mice
# [25] = iv, 5 mg/kg, GT DcNP, 50/5 mg/kg G/T IV, mice
# [26] = iv, Control (CrEL suspension), 50/5 mg/kg G/T IV, mice
compound,measurement,setting,value
"Nc1ccn([C@@H]2O[C@H](CO)[C@@H](O)C2(F)F)c(=O)n1 [Gemcitabine, 4-amino-1-[(2R,4R,5R)-3,3-difluoro-4-hydroxy-5-(hydroxymethyl)oxolan-2-yl]pyrimidin-2-one]",AUC0 to ∞ Ratio (DcNP to control),"[1]; 50/5 mg/kg G/T IV, mice",61.0
same,C0 Ratio (DcNP to control),"[1]; 50/5 mg/kg G/T IV, mice",1.1
same,Dose/AUC Ratio (DcNP to control),"[1]; 50/5 mg/kg G/T IV, mice",0.02
same,MRT Ratio (DcNP to control),"[1]; 50/5 mg/kg G/T IV, mice",45.2
same,"T1/2,app Ratio (DcNP to control)","[1]; 50/5 mg/kg G/T IV, mice",8.6
same,Vss Ratio (DcNP to control),"[1]; 50/5 mg/kg G/T IV, mice",0.7
same,"plasma concentration at 3 hours, DcNP times greater than CrEL","[1]; 50/5 mg/kg G/T IV, mice",470 times
same,AUC0 to ∞ Ratio (DcNP to control),"[1]; 50/5 mg/kg G/T IV, mice, listed as G",61
same,AUC0 to ∞ Ratio (DcNP to control),"[1]; 50/5 mg/kg G/T IV, mice, listed as gemcitabine",50
same,Dose/AUC (apparent clearance),[1]; [3],65.2 mL/h
same,G to dFdU ratio in plasma at 6 hours,[1]; CrEL control dosage form,0.01
same,difference in mean residence times of G and T after DcNP administration,[1]; GT DcNP,11.3 fold
same,Dose/AUC (apparent clearance),[1]; [4],1.1 mL/h
same,plasma concentration within 15 minutes,"[1]; after GT in CrEL control dosage form IV, mice",12023.5 ng/mL
same,mean plasma concentration at 3 hours,"[1]; after control CrEL dosing, 50/5 mg/kg G/T IV, mice, listed as G",87.3 ng/mL
same,MRT,"[1]; 50 mg/kg, Control (CrEL suspension), 50/5 mg/kg G/T IV, mice",0.25 h
same,concentration at 3 h,[1]; [5],41100 ng/mL
same,concentration at 3 h,[1]; [6],87.3 ng/mL
same,AUC(0-inf),[1]; [7],15300 ng·h/mL
same,C0,[1]; [7],165000 ng/mL
same,half-life,[1]; [7],1.6 h
same,Vd,[1]; [7],0.0166 L
same,AUC(0-inf),[1]; [8],937000 ng·h/mL
same,C0,[1]; [8],181000 ng/mL
same,MRT,[1]; [8],11.3 h
same,half-life,[1]; [8],13.7 h
same,Vd,[1]; [8],0.0121 L
same,half-life,[1]; [9],13.7 h
same,time over which concentrations in plasma were detected,[1],≥ 48 h
same,plasma concentration by 24 hours,[1],fell below the detection limit
same,"lung-to-plasma ratio, cancer nodule bearing mice times greater than healthy",[2]; 24 hours after GT DcNP,5 times
same,concentration at 1 h,[2]; [10],12500 ± 4900 ng/g
same,concentration at 1 h,[2]; [11],7500 ± 1200 ng/g
same,concentration at 1 h,[2]; [12],6000 ± 800 ng/g
same,concentration at 1 h,[2]; [13],900 ± 400 ng/g
same,concentration at 24 h,[2]; [14],3500 ± 1000 ng/g
same,concentration at 24 h,[2]; [15],300 ± 100 ng/g
same,Kp at 1 h,[2]; [16],0.2 ± 0.1
same,Kp at 1 h,[2]; [17],0.1 ± 0.2
same,Kp at 1 h,[2]; [18],2.2 ± 1.4
same,Kp at 1 h,[2]; [19],0.9 ± 0.3
same,Kp at 24 h,[2]; 4T1 tumor bearing mice,0.1 ± 0.03
same,Kp at 24 h,[2]; Healthy mice,0.02 ± 0.01
same,concentration at 1 h,[2]; [20],72600 ± 60000 ng/mL
same,concentration at 1 h,[2]; [21],52200 ± 64000 ng/mL
same,concentration at 1 h,[2]; [22],2800 ± 1400 ng/mL
same,concentration at 1 h,[2]; [23],900 ± 200 ng/mL
same,concentration at 24 h,"[2]; plasma, 4T1 tumor bearing mice, read-out: Plasma",34200 ± 600 ng/mL
same,concentration at 24 h,"[2]; plasma, Healthy mice, read-out: Plasma",12700 ± 1500 ng/mL
"CC(=O)O[C@H]1C(=O)[C@@]2(C)[C@H]([C@H](OC(=O)c3ccccc3)[C@]3(O)C[C@H](OC(=O)[C@H](O)[C@@H](NC(=O)c4ccccc4)c4ccccc4)C(C)=C1C3(C)C)[C@]1(OC(C)=O)CO[C@@H]1C[C@@H]2O [Paclitaxel, [(1S,2S,3R,4S,7R,9S,10S,12R,15S)-4,12-diacetyloxy-15-[(2R,3S)-3-benzamido-2-hydroxy-3-phenylpropanoyl]oxy-1,9-dihydroxy-10,14,17,17-tetramethyl-11-oxo-6-oxatetracyclo[11.3.1.0^3,10.0^4,7]heptadec-13-en-2-yl] benzoate]","plasma concentration at 3 hours, DcNP times greater than CrEL","[1]; 50/5 mg/kg G/T IV, mice",3.3 times
same,Dose/AUC (apparent clearance),[1]; [3],38.3 mL/h
same,"T1/2,app",[1]; [3],1.8 h
same,Dose/AUC (apparent clearance),[1]; [4],10.2 mL/h
same,"T1/2,app",[1]; [4],2.0 h
same,concentration at 3 h,[1]; [5],643 ng/mL
same,concentration at 3 h,[1]; [6],194 ng/mL
same,MRT,[1]; [24],1 h
same,Vd,[1]; [24],0.0356 L
same,MRT,[1]; [25],1 h
same,Vd,[1]; [25],0.01 L
same,AUC(0-inf),[1]; [26],2610 ng·h/mL
same,C0,[1]; [26],17700 ng/mL
same,AUC(0-inf),[1]; [9],9810 ng·h/mL
same,C0,[1]; [9],13900 ng/mL
same,time over which concentrations in plasma were detected,[1],≤ 6 h
same,plasma concentration by 24 hours,[1],fell below the detection limit
same,"lung concentration, cancer nodule bearing mice times greater than healthy mice",[2]; 24 hours after GT DcNP,7 times
same,concentration at 1 h,[2]; [10],900 ± 500 ng/g
same,concentration at 1 h,[2]; [11],600 ± 400 ng/g
same,concentration at 1 h,[2]; [12],1700 ± 500 ng/g
same,concentration at 1 h,[2]; [13],1000 ± 300 ng/g
same,concentration at 24 h,[2]; [14],400 ± 100 ng/g
same,concentration at 24 h,[2]; [15],60 ± 10 ng/g
same,Kp at 1 h,[2]; [16],0.4 ± 0.2
same,Kp at 1 h,[2]; [17],0.4 ± 0.01
same,Kp at 1 h,[2]; [18],2.5 ± 0.8
same,Kp at 1 h,[2]; [19],3.3 ± 1.2
same,concentration at 1 h,[2]; [20],2200 ± 1100 ng/mL
same,concentration at 1 h,[2]; [21],1400 ± 900 ng/mL
same,concentration at 1 h,[2]; [22],700 ± 100 ng/mL
same,concentration at 1 h,[2]; [23],300 ± 50 ng/mL

# Source: US20230113802A1, “COMPOSITION AND METHOD TO PREPARE LONG-ACTING INJECTABLE SUSPENSION CONTAINING MULTIPLE CANCER DRUGS” (University of Washington, priority 2020, published 2023)
